Consider four compounds from PMC2746553 (Biochemistry, 2009).

What is called Kd is the concentration at which binding is half-saturated. High values mean weaker binding, low ones tighter binding. What is called Ki is the dissociation constant of the complex between target and ligand, obtained from inhibition or displacement.

The target in assay [1] is T1, 15-hLO-2 (human epithelial 15-lipoxygenase-2) (Homo sapiens, UniProt O15296).
T1 sequence (O15296 1-676): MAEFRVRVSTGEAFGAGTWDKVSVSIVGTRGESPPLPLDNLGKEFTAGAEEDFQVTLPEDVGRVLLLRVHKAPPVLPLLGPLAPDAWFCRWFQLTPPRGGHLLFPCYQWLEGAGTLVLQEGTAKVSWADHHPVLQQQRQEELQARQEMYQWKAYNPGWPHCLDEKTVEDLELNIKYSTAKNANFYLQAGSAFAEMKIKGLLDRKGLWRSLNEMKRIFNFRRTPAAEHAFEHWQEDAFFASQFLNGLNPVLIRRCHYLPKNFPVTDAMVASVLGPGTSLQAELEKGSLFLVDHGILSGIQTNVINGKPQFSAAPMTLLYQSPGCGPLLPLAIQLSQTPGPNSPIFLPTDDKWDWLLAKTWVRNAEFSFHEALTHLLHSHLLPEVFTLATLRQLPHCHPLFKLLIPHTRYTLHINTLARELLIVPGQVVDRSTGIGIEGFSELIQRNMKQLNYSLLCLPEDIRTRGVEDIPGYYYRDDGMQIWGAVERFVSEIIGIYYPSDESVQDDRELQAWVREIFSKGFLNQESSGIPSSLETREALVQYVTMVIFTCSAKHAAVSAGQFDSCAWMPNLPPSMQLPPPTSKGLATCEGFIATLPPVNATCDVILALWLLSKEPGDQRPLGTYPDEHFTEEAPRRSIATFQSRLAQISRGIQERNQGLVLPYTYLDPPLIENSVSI
Kind of assay: competitive substrate capture, solvent isotope effect and steady-state kinetics. The format is biochemical.

Assay [2] concerns the target T1, 15-hLO-2 (human epithelial 15-lipoxygenase-2).
Assay [3] shares this target. Kind of assay: competitive kinetic isotope effect and competitive substrate capture. The assay is classed as biochemical.
For assay [4] the target is unchanged. Nature of the assay: steady-state inhibition kinetics with AA as substrate. The assay is classed as biochemical.

In turn, `CCCCC[C@H](O)/C=C/C=C\CCCCCCCC(=O)O` [13-HODE, 13-(S)-hydroxyoctadecadienoic acid] returned a Kd in assay [1] of about 0.005 µM.

In the case of `CCCCC/C=C\C/C=C\C/C=C\C/C=C\CCCC(=O)O` [AA, arachidonic acid], in assay [2], the “steady-state kinetics (234 nm), kcat/KM at pH 7.5” value is 0.15 ± 0.02 μM^-1 s^-1.

Consider `CCCCC/C=C\C/C=C\CCCCCCCC(=O)O` [LA, linoleic acid], for which, in assay [3], the “competitive kinetic isotope effect and competitive substrate capture (HPLC)” value was found to be 45 ± 3.

For the compound `CCCCC/C=C\C/C=C\CCCCCCCC(=O)O` [d31-LA], the Ki in assay [4] is 17 ± 3 µM.
